Data reported in patent US20250034216A1, “STEREOSELECTIVE COVALENT LIGANDS FOR ONCOGENIC AND IMMUNOLOGICAL PROTEINS” (The Scripps Research Institute, priority 2021, published 2025).

Experiments:
Test in all cases: IA-DTB cysteine engagement
Format in all cases: binding
Conditions in all cases: 22Rv1 cells, 20 μM probe, 1 h, relative to DMSO
[1] = target: T1, GCN1_C1095 (Homo sapiens, UniProt Q92616)
T1 construct: endogenous in cells; host or cells: 22Rv1
Summary of the method: (§1)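 In-situ probe treatment of cells; lysate 2 mg/mL, IA-DTB 1 h RT; MeOH/CHCl3 precipitation, DTT/iodoacetamide, trypsin; streptavidin enrichment; TMT labeling, high-pH fractionation. Ratio = TMT reporter intensity / mean DMSO channels, median-normalized.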

[2] = target: T2, ESRP1_C551 (Homo sapiens, UniProt Q6NXG1)
T2 construct: endogenous in cells; host or cells: 22Rv1
T2 sequence (Q6NXG1 1-681): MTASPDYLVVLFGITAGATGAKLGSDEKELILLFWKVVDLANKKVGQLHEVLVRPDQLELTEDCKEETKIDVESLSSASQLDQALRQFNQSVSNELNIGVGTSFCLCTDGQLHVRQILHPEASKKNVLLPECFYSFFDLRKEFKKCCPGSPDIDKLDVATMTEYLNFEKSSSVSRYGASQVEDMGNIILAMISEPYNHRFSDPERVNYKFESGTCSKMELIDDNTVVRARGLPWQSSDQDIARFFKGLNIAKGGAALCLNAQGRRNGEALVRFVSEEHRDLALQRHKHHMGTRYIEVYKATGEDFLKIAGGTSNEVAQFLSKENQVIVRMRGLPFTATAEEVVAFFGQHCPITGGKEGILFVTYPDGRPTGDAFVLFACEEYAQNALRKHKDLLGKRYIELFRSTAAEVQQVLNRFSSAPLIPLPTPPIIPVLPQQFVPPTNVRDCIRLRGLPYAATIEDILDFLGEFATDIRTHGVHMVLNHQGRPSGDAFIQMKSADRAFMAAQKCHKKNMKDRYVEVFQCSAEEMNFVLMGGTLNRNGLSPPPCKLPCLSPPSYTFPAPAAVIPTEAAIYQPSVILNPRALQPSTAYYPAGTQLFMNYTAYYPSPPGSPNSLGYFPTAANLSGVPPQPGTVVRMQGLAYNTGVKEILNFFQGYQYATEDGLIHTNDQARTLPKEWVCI
Summary of the method: as §1

[3] = target: T3, SYNE2_C2993 (Homo sapiens, UniProt Q8WXH0)
T3 construct: endogenous in cells; host or cells: 22Rv1
Summary of the method: as §1

[4] = target: T4, PDP1_C149 (Homo sapiens, UniProt Q9P0J1)
T4 construct: endogenous in cells; host or cells: 22Rv1
T4 sequence (Q9P0J1 72-537): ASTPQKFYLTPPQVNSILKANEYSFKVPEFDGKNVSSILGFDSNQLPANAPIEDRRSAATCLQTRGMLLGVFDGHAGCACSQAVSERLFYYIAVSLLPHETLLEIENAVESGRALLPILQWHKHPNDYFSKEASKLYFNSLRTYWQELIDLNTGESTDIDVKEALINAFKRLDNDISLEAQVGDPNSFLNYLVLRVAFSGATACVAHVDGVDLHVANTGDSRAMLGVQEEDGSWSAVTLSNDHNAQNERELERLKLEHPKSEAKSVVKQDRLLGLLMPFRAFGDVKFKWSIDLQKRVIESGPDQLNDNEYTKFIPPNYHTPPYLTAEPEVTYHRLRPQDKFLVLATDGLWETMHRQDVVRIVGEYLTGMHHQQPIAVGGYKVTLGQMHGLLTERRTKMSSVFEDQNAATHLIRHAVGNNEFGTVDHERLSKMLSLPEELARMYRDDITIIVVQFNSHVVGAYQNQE
Summary of the method: as §1

T1 sequence (Q92616 whole entry): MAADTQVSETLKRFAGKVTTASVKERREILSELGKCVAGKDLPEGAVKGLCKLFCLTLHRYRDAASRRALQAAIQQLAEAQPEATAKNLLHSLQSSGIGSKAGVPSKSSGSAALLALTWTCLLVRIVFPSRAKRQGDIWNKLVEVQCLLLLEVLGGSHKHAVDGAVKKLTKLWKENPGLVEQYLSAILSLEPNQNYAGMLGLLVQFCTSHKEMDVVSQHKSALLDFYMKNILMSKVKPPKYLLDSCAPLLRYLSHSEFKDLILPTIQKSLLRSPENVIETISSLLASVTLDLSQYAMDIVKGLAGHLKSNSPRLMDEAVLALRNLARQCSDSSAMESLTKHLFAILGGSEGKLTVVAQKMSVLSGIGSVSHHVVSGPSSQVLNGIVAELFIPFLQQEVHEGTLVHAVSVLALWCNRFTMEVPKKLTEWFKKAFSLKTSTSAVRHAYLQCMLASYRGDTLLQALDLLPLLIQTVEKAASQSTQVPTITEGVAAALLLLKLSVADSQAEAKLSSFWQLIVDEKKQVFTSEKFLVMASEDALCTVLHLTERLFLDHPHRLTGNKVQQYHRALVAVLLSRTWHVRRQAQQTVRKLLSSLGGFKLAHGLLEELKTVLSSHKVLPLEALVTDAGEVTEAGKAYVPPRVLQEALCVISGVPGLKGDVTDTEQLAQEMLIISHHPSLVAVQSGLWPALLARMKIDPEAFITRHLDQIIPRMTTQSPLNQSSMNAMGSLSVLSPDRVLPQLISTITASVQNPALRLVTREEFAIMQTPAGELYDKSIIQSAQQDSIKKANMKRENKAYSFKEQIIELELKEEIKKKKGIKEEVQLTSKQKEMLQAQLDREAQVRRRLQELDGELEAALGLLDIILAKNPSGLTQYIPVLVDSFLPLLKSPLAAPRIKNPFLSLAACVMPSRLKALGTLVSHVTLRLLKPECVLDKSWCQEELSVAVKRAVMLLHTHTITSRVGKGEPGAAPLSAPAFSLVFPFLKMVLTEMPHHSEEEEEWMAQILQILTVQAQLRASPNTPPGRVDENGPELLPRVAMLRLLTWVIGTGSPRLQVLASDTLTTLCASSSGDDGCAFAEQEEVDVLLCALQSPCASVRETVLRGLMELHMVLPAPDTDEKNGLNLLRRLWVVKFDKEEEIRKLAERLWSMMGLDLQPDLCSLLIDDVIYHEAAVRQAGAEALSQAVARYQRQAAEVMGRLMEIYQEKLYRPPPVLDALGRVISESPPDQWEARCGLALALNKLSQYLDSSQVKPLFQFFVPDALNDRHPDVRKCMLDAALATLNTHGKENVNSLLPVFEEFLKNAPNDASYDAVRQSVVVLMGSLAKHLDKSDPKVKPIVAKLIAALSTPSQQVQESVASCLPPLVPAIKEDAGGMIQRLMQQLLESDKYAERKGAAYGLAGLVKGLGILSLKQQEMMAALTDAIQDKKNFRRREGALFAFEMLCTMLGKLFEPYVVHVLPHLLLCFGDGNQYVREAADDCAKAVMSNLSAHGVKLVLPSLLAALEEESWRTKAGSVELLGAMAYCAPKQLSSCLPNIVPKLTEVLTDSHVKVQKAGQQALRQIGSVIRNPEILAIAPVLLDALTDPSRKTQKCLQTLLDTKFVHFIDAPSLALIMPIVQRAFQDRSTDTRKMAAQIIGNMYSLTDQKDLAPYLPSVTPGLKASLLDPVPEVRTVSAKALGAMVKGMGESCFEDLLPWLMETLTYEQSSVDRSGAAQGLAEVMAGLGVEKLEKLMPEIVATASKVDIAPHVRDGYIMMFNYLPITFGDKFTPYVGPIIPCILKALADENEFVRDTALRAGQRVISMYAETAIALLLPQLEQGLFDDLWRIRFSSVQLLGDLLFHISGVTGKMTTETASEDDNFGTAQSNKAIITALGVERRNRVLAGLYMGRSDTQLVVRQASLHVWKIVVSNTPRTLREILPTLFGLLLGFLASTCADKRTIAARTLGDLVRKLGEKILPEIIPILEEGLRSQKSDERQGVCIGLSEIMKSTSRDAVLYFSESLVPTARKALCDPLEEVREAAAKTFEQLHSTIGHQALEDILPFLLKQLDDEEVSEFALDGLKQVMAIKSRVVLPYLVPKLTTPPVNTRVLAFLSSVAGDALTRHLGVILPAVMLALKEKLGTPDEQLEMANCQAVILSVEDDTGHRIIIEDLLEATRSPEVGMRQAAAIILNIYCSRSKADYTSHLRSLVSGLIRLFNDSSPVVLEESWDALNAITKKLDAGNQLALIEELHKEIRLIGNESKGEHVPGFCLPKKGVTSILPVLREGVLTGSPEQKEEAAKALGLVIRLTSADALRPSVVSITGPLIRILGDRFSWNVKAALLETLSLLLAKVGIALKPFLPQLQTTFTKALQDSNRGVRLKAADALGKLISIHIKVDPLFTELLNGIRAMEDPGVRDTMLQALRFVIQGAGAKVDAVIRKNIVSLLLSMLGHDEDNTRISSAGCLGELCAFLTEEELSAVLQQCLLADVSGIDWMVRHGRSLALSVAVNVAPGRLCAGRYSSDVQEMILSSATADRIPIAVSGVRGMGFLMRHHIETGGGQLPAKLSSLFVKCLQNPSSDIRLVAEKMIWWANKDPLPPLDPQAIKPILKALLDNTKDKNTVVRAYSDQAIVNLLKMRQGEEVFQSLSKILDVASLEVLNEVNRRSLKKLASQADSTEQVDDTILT

Row | % engagement GCN1_C1095 [1] | % engagement ESRP1_C551 [2] | % engagement SYNE2_C2993 [3] | % engagement PDP1_C149 [4] | Compound
1 | −7.5% | 69% | 54.5% | 37.25% | C=CC(=O)N1C[C@H](c2ccc(Br)cc2)[C@H]1C(=O)Nc1cccc2cccnc12 [MY-3B, (2S,3S)-1-acryloyl-3-(4-bromophenyl)-N-(quinolin-8-yl)azetidine-2-carboxamide]
2 | 84% | 73.5% | 76.5% | 37.25% | C=CC(=O)N1C[C@H](c2ccc(Br)cc2)[C@@H]1C(=O)Nc1cccc2cccnc12 [MY-1B, (2R,3S)-1-acryloyl-3-(4-bromophenyl)-N-(quinolin-8-yl)azetidine-2-carboxamide]
3 | 5% | 6.5% | 26.5% | 19.25% | C=CC(=O)N1C[C@H](c2ccc(Br)cc2)[C@H]1C(=O)Nc1cccc2cccnc12 [MY-3A, (2S,3S)-1-acryloyl-3-(4-bromophenyl)-N-(quinolin-8-yl)azetidine-2-carboxamide]
4 | 18.5% | 51% | −20% | 67% | C=CC(=O)N1C[C@@H](c2ccc(Br)cc2)[C@H]1C(=O)Nc1cccc2cccnc12 [MY-1A, (2S,3R)-1-acryloyl-3-(4-bromophenyl)-N-(quinolin-8-yl)azetidine-2-carboxamide]
